In US20080318842A1, “Cyclic Isodityrosine Derivatives” (priority 2004, published 2008):
Converted amounts (≈) assume the structure as drawn. Read-outs that look alike come from different tables or passages of the source.

Experiments:
MRSA K24 strain = assay: Imipenem activity-potentiating effect, paper-disc method on plate containing imipenem; type: cell-based, methicillin-resistant Staphylococcus aureus; settings: for MRSA (mm) [10 μg/6 mm disc]: diameter of inhibition circle, 10 μg agent per 6 mm paper disc, plate with imipenem 10 μg/mL, 37° C., 20 hours
Description: In this example, clinically isolated MRSA K24 strain was used as an assay strain. A plate for control was prepared by adding 1.5% of agar (manufactured by Shimizu Shokuhin Kaisha, Ltd.) to Mueller-Hinton Broth (manufactured by DIFCO Laboratories), and a plate for assay was prepared by adding imipenem (trade name: Tienam for intramuscular injection, titer: 0.5, manufactured by Banyu Pharmaceutical Co., Ltd.) to the above composition so that the final concentration of imipenem was 10 μg/mL. These plates were used as assay plates. An inoculum solution was prepared by culturing the assay strain in Mueller-Hinton Broth for one night, and diluting the culture solution with the same culture medium so as to have a concentration of 0.5 McFarland units (about 10^8 cfu/mL). This inoculum solution was applied on each of the plates with a sterile cotton swab in accordance with the National Committee For Clinical Laboratory Standards (NCCLS) method. The antibacterial activities against the assay strain in the plates were evaluated by a paper-disc method as follows. Paper discs with a diameter of 6 mm impregnated with 10 μg of assay medical agents (eurypamides A, A′, B, and D, and Compounds (1) to (12)) were placed on each of the plates, and the plates were cultured at 37° C. for 20 hours.
On the plate for control, the assay strain was grown under the paper discs. […] In addition, the assay strain could be grown on the plate for assay. […] If the compound impregnated in the paper disc acts in combination with imipenem to exert anti-MRSA activity, growth of the assay strain would not be observed under and around the paper disc. Therefore, in this example, the imipenem activity-potentiating effect for MRSA is represented by a diameter of an inhibition circle (the diameter passing through the center of the paper disc) on the assay plates.

[1] = tested on: mouse peritoneal macrophages; assay: Inhibition of production of cholesteryl ester from [14C] oleic acid in mouse peritoneal macrophages; type: cell-based; settings: for IC50: Peritoneal macrophage
Description: Production of a cholesteryl ester in mouse peritoneal macrophages was performed by partly modifying the method by Nishikawa et al (Nishikawa et al., the Journal of Biological Chemistry (JBC) 265, pp. 5226-5231, 1990). Mouse peritoneal macrophages were prepared from an ICR female mouse as follows. First, cells were isolated from the mouse peritoneal cavity using a Hank's balanced salt solution (HBSS) and then suspended in a GIT medium so as to have a concentration of 2×10^6 cells/mL. Subsequently, 0.25 mL of the suspension was placed in each of 48 wells on a plastic culture plate, and the plate was cultured in the presence of 5% CO2 at 37° C. for two hours. In order to remove non-adhesive cells, each well was then washed with 0.25 mL of an HBSS three times. Finally, 0.25 mL of a culture medium A (Dulbecco's modified Eagle's medium (DMEM) containing 100 u/mL of penicillin, 100 μg/mL of streptomycin, and an 8% lipoprotein-free serum) was added thereto.
The effect of inhibiting the synthesis of a cholesteryl ester of the agents (eurypamides A, A′, B, and D, and Compounds (1) to (12)) in the macrophages thus prepared was evaluated as follows: The amount of [^14C] cholesteryl ester and [^14C] triacylglycerol synthesized from [^14C] oleic acid was measured as follows, and a concentration of the agent at which the synthesis was inhibited by 50% (IC50: μg/mL) was determined.
First, the macrophages (5×10^5 cells/0.25 mL/well) were cultured in a plastic culture plate with 48 wells. Subsequently, 5 μL of [^14C] oleic acid (1 nmol, 0.05 μCi, which was dissolved in a phosphate buffered saline (PBS) containing 10% ethanol), liposome (having a composition of phosphatidylcholine/phosphatidylserine/diacetylphosphate/cholesterol=10/10/2/5 (nmol) in 10 μL of 0.3 M glucose), and 2.5 μL of each agent dissolved in methanol were added to each well. The plate was cultured for 14 hours, and the culture medium was then removed. Each of the wells was washed with a PBS three times. Subsequently, 0.25 mL of a PBS containing 0.1% (w/v) sodium dodecyl sulfate (SDS) was added to each well to lyse the cells. Lipid in the cells was extracted by the method by Bligh & Dyer (Bligh & Dyer, Can. J. Biochem. Physiol., 37, pp. 911-917, 1959). The volume of the organic solvent was reduced by centrifugation in vacuum. The solution was spotted on a thin-layer chromatography (TLC) plate (silica gel […], thickness: 0.5 mm, manufactured by Merck Ltd.) and developed with hexane/diethyl ether/acetic acid (70/30/1, v/v). The amounts of separated [^14C] cholesteryl oleate and [^14C] triacylglycerol were analyzed with a bioimage analyzer (BAS2000 manufactured by FUJIFILM Corporation).

[2] = Mus musculus, 14 h, read-out: Macrophage [IC50 μg/mL]
[3] = Mus musculus, read-out: IC50 of inhibiting the production of cholesteryl oleate
[4] = Mus musculus, synthesis of [14C] cholesteryl ester from [14C] oleic acid, 14 hours culture, read-out: Macrophage [IC50 μg/mL]
[5] = mouse peritoneal macrophages, read-out: IC50 of inhibiting the production of cholesteryl oleate
[6] = synthesis of [14C] cholesteryl ester from [14C] oleic acid, 14 hours culture

| Compound | MRSA (mm) [10 μg/6 mm disc] (MRSA K24 strain) | imipenem activity-potentiating effect (anti-MRSA activity in combination with imipenem), in words (MRSA K24 strain) | IC50 [1, 2] | IC50 [1, 3] | effect of inhibiting the synthesis of a cholesteryl ester in macrophages, in words [1] | IC50 [1, 4] | IC50 [1, 5] | Macrophage [IC50 μg/mL] [1, 6] |
| --- | --- | --- | --- | --- | --- | --- | --- | --- |
| COC(=O)C1Cc2cc(Br)c(c(Br)c2)Oc2cc(cc(I)c2O)C[C@H](NC(=O)OCc2ccccc2)C(=O)N[C@@H]([C@H](C)OCc2ccccc2)C(=O)N1 (some centres unmarked) [Compound (1), N-Cbz-Thr(O-benzyl)-dibromo-iodo-eurypamide B methyl ester] | 8 mm | potentiate | 3 µg/mL (≈ 3.11 µM) | 3 µg/mL (≈ 3.11 µM) | have an effect of inhibiting the synthesis of a cholesteryl ester in macrophages |  |  |  |
| COC(=O)C1Cc2cc(Br)c(c(Br)c2)Oc2cc(cc(I)c2O)C[C@H](NC(=O)OC(C)(C)C)C(=O)N[C@@H]([C@H](C)OCc2ccccc2)C(=O)N1 (some centres unmarked) [Compound (2), N-Boc-Thr(O-benzyl)-dibromo-iodo-eurypamide B methyl ester] | 8 mm | potentiate | 3 µg/mL (≈ 3.22 µM) | 3 µg/mL (≈ 3.22 µM) | have an effect of inhibiting the synthesis of a cholesteryl ester in macrophages |  |  |  |
| C[C@@H](O)[C@@H]1NC(=O)[C@@H](NC(=O)OC(C)(C)C)Cc2cc(I)c(O)c(c2)Oc2c(Br)cc(cc2Br)CC(C(=O)O)NC1=O (some centres unmarked) [Compound (3), N-Boc-dibromo-iodo-eurypamide B] | 10 mm | potentiate | > 10 µg/mL |  |  |  |  |  |
| COC(=O)C1Cc2cc(Br)c(c(Br)c2)Oc2cc(cc(I)c2O)C[C@H](N)C(=O)N[C@@H]([C@@H](C)O)C(=O)N1 (some centres unmarked) [Compound (4), dibromo-iodo-eurypamide B methyl ester] | 8 mm | potentiate |  |  |  | > 10 µg/mL |  |  |
| COC(=O)[C@@H]1Cc2cc(Br)c(c(Br)c2)Oc2cc(cc(I)c2O)C[C@H](N)C(=O)N[C@@H](C(C)OCc2ccccc2)C(=O)N1 (some centres unmarked) [Compound (5), Thr(O-benzyl)-dibromo-iodo-eurypamide B methyl ester] | 8 mm | potentiate |  |  |  | > 10 µg/mL |  |  |
| COC(=O)[C@@H]1Cc2cc(Br)c(c(Br)c2)Oc2cc(cc(I)c2O)C[C@H](NC(=O)OCC2c3ccccc3-c3ccccc32)C(=O)N[C@@H](C(C)OCc2ccccc2)C(=O)N1 (some centres unmarked) [Compound (6)] |  | do not potentiate |  |  | have an effect of inhibiting the synthesis of a cholesteryl ester in macrophages | 0.32 µg/mL (≈ 0.304 µM) | 0.32 µg/mL (≈ 0.304 µM) |  |
| COC(=O)[C@@H]1Cc2cc(Br)c(c(Br)c2)Oc2cc(cc(I)c2O)C[C@H](NC(=O)CCCCCNC(=O)OC(C)(C)C)C(=O)N[C@@H](C(C)OCc2ccccc2)C(=O)N1 (some centres unmarked) [Compound (7)] |  | do not potentiate |  |  | have an effect of inhibiting the synthesis of a cholesteryl ester in macrophages | 4.2 µg/mL (≈ 4.02 µM) | 4.2 µg/mL (≈ 4.02 µM) |  |
| COC(=O)[C@@H]1Cc2cc(Br)c(c(Br)c2)Oc2cc(cc(I)c2O)C[C@H](NC(=O)C(Cc2ccccc2)NC(=O)OC(C)(C)C)C(=O)N[C@@H](C(C)OCc2ccccc2)C(=O)N1 (some centres unmarked) [Compound (8)] |  | do not potentiate |  |  | have an effect of inhibiting the synthesis of a cholesteryl ester in macrophages | 5 µg/mL (≈ 4.64 µM) | 5 µg/mL (≈ 4.64 µM) |  |
| CC(OCc1ccccc1)[C@@H]1NC(=O)[C@@H](NC(=O)OC(C)(C)C)Cc2cc(I)c(O)c(c2)Oc2c(Br)cc(cc2Br)C[C@@H](C(=O)O)NC1=O (some centres unmarked) [Compound (9)] | 17 mm | potentiate | > 10 µg/mL |  |  |  |  |  |
| CC(OCc1ccccc1)[C@@H]1NC(=O)[C@@H](N)Cc2cc(I)c(O)c(c2)Oc2c(Br)cc(cc2Br)C[C@@H](C(=O)O)NC1=O (some centres unmarked) [Compound (11)] | 12 mm | potentiate |  |  |  | > 10 µg/mL |  |  |
| COC(=O)[C@@H]1Cc2cc(Br)c(c(Br)c2)Oc2cc(cc(I)c2O)C[C@H](NC(=O)OC(C)(C)C)C(=O)N[C@@H](C(C)O)C(=O)N1 (some centres unmarked) [Compound (12), N-Boc-dibromo-iodo-eurypamide B methyl ester] | 9 mm | potentiate | > 10 µg/mL |  |  |  |  |  |
| C[C@@H](O)[C@@H]1NC(=O)[C@@H](N)Cc2ccc(O)c(c2)Oc2ccc(cc2)C[C@@H](C(=O)O)NC1=O [Eurypamide B, reference compound] |  |  |  |  |  |  |  | — (The symbol “-” in the column of macrophage in Table 1 means that the compound did not exhibit inhibition in its amount of 10 μg/mL) |
| Eurypamide A [reference compound] |  |  |  |  |  |  |  | — (The symbol “-” in the column of macrophage in Table 1 means that the compound did not exhibit inhibition in its amount of 10 μg/mL) |
| Eurypamide A′ [reference compound] |  |  |  |  |  |  |  | — (The symbol “-” in the column of macrophage in Table 1 means that the compound did not exhibit inhibition in its amount of 10 μg/mL) |
| Eurypamide D [reference compound] |  |  |  |  |  |  |  | — (The symbol “-” in the column of macrophage in Table 1 means that the compound did not exhibit inhibition in its amount of 10 μg/mL) |
